Data taken from US20250382373A1, “ANTI-EGFR/MET ANTIBODIES AND USES THEREOF” (Biocytogen Pharmaceuticals (Beijing) Co., Ltd., priority 2022, published 2025).

Legend:
HCC827 cells = test: Internalization of antibodies targeting EGFR and/or MET in HCC827 cells; type: cell-based, human; conditions: HCC827, 1 hour
Description: (§1) Anti-EGFR antibodies, anti-MET antibodies, or anti-EGFR/MET bispecific antibodies, together with the pHAb-Goat anti-human IgG secondary antibody were added to NCI-H1975 cells (ATCC, Reference No.: CRL-5908), HCC827 cells (ATCC, Reference No.: CRL-2868) and NCI-H292 (ATCC, Reference No.: CRL-1848) cells, respectively, and incubated for 1 hour. The cells were centrifuged and washed with FACS buffer. MFI was measured using a flow cytometer. Endocytosis rates of antibodies were calculated. For isotype control (ISO), an antibody targeting an irrelevant target protein was used.

NCI-H292 cells [1] = test: Internalization of antibodies targeting EGFR and/or MET in NCI-H292 cells; type: cell-based, human; conditions: NCI-H292, 1 hour
Description: as §1

[2] = system: human lung cancer cell line NCI-H1975; test: In vitro killing activity, IncuCyte; type: cell-based
Description: Different concentrations of purified antibodies (10 μg/mL, 3.33 μg/mL, 1.11 μg/mL, 0.37 μg/mL, 0.123 μg/mL, 0.041 μg/mL, 0.013 μg/mL, and 0.004 μg/mL) and corresponding ADCs were used to treat human lung cancer cell line NCI-H1975 (5×10^3) cultured in a cell culture plate, and the killing activity was detected after 72 hours of incubation in IncuCyte (Sartorius AG, IncuCyte® S3).

NCI-H1975 cells = test: NCI-H1975 xenograft model in B-NDG mice; type: in vivo; conditions: Table 21 study
Description: The lengths of the long axis and the short axis of the tumor were measured and the volume of the tumor was calculated as 0.5×(long axis)×(short axis)^2. The tumor growth inhibition (TGI) was calculated using the following formula: TGI (%)=[1−(Ti−T0)/(Vi−V0)]×100. Ti is the average tumor volume in the treatment group on day i. T0 is the average tumor volume in the treatment group on day zero. Vi is the average tumor volume in the control group on day i. V0 is the average tumor volume in the control group on day zero. T-test was performed for statistical analysis. […] P<0.05 is a threshold to indicate significant difference.

SNU-5 cells = test: SNU-5 xenograft model (gastric carcinoma) in B-NDG mice; type: in vivo; conditions: for Tumor volume Day 10: 10 days after grouping; for TGI (%): Day 24; for Tumor volume Day 0: day of grouping; for Tumor volume Day 24: end of experiment; for Survival: surviving/total mice
[3] = system: patient-derived lung tumor fragments (PDX001); test: Human lung PDX001 model; type: in vivo, B-NDG mice; conditions: for TGI (%): Day 23; for Tumor volume Day 0: day of grouping; for Survival: surviving/total mice
[4] = system: patient-derived lung tumor fragments (PDX002); test: Human lung PDX002 model; type: in vivo, B-NDG mice; conditions: once a week x2; for Tumor volume Day 0: day of grouping; for Survival: surviving/total mice
Description: The control group mice were injected with PBS (G1).

[5] = system: patient-derived pancreatic tumor fragments (PDX004); test: Human pancreatic PDX004 model; type: in vivo, B-NDG mice; conditions: Day 35
Description: The tested antibody and the frequency of administration was similar to Table 28.

[6] = system: patient-derived pancreatic tumor fragments (PDX003); test: Human pancreatic PDX003 model; conditions: for TGI (%): Day 21; for Tumor volume Day 0: day of grouping; for Survival: surviving/total mice
Description: The antibodies were tested for their effect in two human pancreatic PDX (PDX003 and PDX004) models.
In PDX003 model, B-NDG mice were engrafted in the right flank with patient-derived pancreatic tumor fragments (2 mm×2 mm×2 mm). When the tumors in the mice reached a volume of about 300-400 mm^3, the mice were randomly placed into different groups based on the volume of the tumor.

NCI-H292 cells [7] = test: NCI-H292 xenograft model in B-NDG mice; conditions: for Tumor volume Day 14: 14 days after grouping; for Tumor volume Day 14 / Tumor volume Day 0 / Tumor volume Day 24: 1×10^7 NCI-H292 cells, about 300 mm^3 at grouping; for TGI (%): Day 24; for TGI (%) / Survival: 1×10^7 NCI-H292 cells experiment; for Tumor volume Day 0: day of grouping; for Tumor volume Day 24: end of experiment; for Survival: surviving/total mice
Description: The antibodies were tested for their effect on tumor growth in vivo in a model of lung carcinoma. About 1×10^7 NCI-H292 cells were injected subcutaneously in B-NDG mice. When the tumor in mice reached a volume of about 300 mm^3, the mice were randomly placed into different groups based on the volume of the tumor. The mice were then injected with PBS or antibodies by intravenous (i.v.) administration. The frequency of administration was once a week (2 administrations in total).

Amivantamab analog: analog of Amivantamab, fully human bispecific antibody targeting EGFR and MET; SEQ ID NOs: 77-80
MFI (HCC827 cells): 30401 | Positive Population (HCC827 cells): 88.90% | MFI (NCI-H292 cells [1]): 13815 | Positive Population (NCI-H292 cells [1]): 67.00% | IC50 ([2]; NCI-H1975, 72 hours): Not detected | ability to kill NCI-H1975 ([2]; highest concentration of 10 μg/m): neither E-6C4-M-2F11 nor Amivantamab analog has the ability to kill | Survival (NCI-H1975 cells; 10 mg/kg i.v. QW x2): 5/5 | Tumor volume Day 11 (NCI-H1975 cells; 10 mg/kg i.v. QW x2): 143 ± 20 mm^3 | Tumor volume Day 21 (NCI-H1975 cells; 10 mg/kg i.v. QW x2): 294 ± 40 mm^3 | TGI (%) (NCI-H1975 cells; 10 mg/kg i.v. QW x2, Day 21): 98.4% | Tumor volume Day 0 (NCI-H1975 cells; 10 mg/kg i.v. QW x2, day of grouping): 260 ± 19 mm^3 | Tumor volume Day 10 (SNU-5 cells; 3 mg/kg i.v. QW x2): 294 ± 10 mm^3 | TGI (%) (SNU-5 cells; 3 mg/kg i.v. QW x2): 8.4% | Tumor volume Day 0 (SNU-5 cells; 3 mg/kg i.v. QW x2): 200 ± 5 mm^3 | Tumor volume Day 24 (SNU-5 cells; 3 mg/kg i.v. QW x2): 1111 ± 64 mm^3 | Survival (SNU-5 cells; 3 mg/kg i.v. QW x2): 5/5 | Tumor volume Day 10 (SNU-5 cells; 10 mg/kg i.v. QW x2): 72 ± 9 mm^3 | TGI (%) (SNU-5 cells; 10 mg/kg i.v. QW x2): 106.4% | Tumor volume Day 0 (SNU-5 cells; 10 mg/kg i.v. QW x2): 200 ± 9 mm^3 | Tumor volume Day 24 (SNU-5 cells; 10 mg/kg i.v. QW x2): 136 ± 35 mm^3 | Survival (SNU-5 cells; 10 mg/kg i.v. QW x2): 5/5 | Tumor volume Day 12 ([3]; 1 mg/kg i.v. QW x2): 1144 ± 86 mm^3 | Tumor volume Day 23 ([3]; 1 mg/kg i.v. QW x2): 3077 ± 235 mm^3 | TGI (%) ([3]; 1 mg/kg i.v. QW x2): −24.7% | Tumor volume Day 0 ([3]; 1 mg/kg i.v. QW x2): 223 ± 18 mm^3 | Survival ([3]; 1 mg/kg i.v. QW x2): 4/6 | Tumor volume Day 12 ([3]; 3 mg/kg i.v. QW x2): 1448 ± 195 mm^3 | Tumor volume Day 23 ([3]; 3 mg/kg i.v. QW x2): 2465 ± 145 mm^3 | TGI (%) ([3]; 3 mg/kg i.v. QW x2): 2.0% | Tumor volume Day 0 ([3]; 3 mg/kg i.v. QW x2): 223 ± 18 mm^3 | Survival ([3]; 3 mg/kg i.v. QW x2): 3/6 | Tumor volume Day 12 ([3]; 10 mg/kg i.v. QW x2): 1132 ± 77 mm^3 | Tumor volume Day 23 ([3]; 10 mg/kg i.v. QW x2): 2666 ± 212 mm^3 | TGI (%) ([3]; 10 mg/kg i.v. QW x2): −6.8% | Tumor volume Day 0 ([3]; 10 mg/kg i.v. QW x2): 223 ± 22 mm^3 | Survival ([3]; 10 mg/kg i.v. QW x2): 6/6 | Tumor volume Day 10 ([4]; 1 mg/kg): 805 ± 99 mm^3 | Tumor volume Day 21 ([4]; 1 mg/kg): 2279 ± 253 mm^3 | Tumor volume Day 0 ([4]; 1 mg/kg): 267 ± 12 mm^3 | Survival ([4]; 1 mg/kg): 0/6 | Tumor volume Day 10 ([4]; 3 mg/kg): 686 ± 55 mm^3 | Tumor volume Day 21 ([4]; 3 mg/kg): 1791 ± 214 mm^3 | Tumor volume Day 35 ([4]; 3 mg/kg): 3509 ± 239 mm^3 | TGI (%) ([4]; 3 mg/kg, Day 35): −7.1% | Tumor volume Day 0 ([4]; 3 mg/kg): 267 ± 13 mm^3 | Survival ([4]; 3 mg/kg): 3/6 | TGI (%) ([5]; 1 mg/kg): −13.3% | TGI (%) ([5]; 3 mg/kg): −0.6% | TGI (%) ([5]; 10 mg/kg): 4.1% | Tumor volume Day 11 ([6]; 1 mg/kg i.v. QW x2): 811 ± 65 mm^3 | Tumor volume Day 21 ([6]; 1 mg/kg i.v. QW x2): 1410 ± 130 mm^3 | TGI (%) ([6]; 1 mg/kg i.v. QW x2): −2.0% | Tumor volume Day 0 ([6]; 1 mg/kg i.v. QW x2): 340 ± 18 mm^3 | Survival ([6]; 1 mg/kg i.v. QW x2): 6/6 | Tumor volume Day 11 ([6]; 3 mg/kg i.v. QW x2): 705 ± 62 mm^3 | Tumor volume Day 21 ([6]; 3 mg/kg i.v. QW x2): 1216 ± 96 mm^3 | TGI (%) ([6]; 3 mg/kg i.v. QW x2): 16.5% | Tumor volume Day 0 ([6]; 3 mg/kg i.v. QW x2): 340 ± 18 mm^3 | Survival ([6]; 3 mg/kg i.v. QW x2): 6/6 | Tumor volume Day 11 ([6]; 10 mg/kg i.v. QW x2): 666 ± 60 mm^3 | Tumor volume Day 21 ([6]; 10 mg/kg i.v. QW x2): 1146 ± 123 mm^3 | TGI (%) ([6]; 10 mg/kg i.v. QW x2): 23.2% | Tumor volume Day 0 ([6]; 10 mg/kg i.v. QW x2): 340 ± 16 mm^3 | Survival ([6]; 10 mg/kg i.v. QW x2): 6/6 | Tumor volume Day 14 (NCI-H292 cells [7]; 1 mg/kg i.v. QW x2): 1338 ± 243 mm^3 | TGI (%) (NCI-H292 cells [7]; 1 mg/kg i.v. QW x2): 0.4% | Tumor volume Day 0 (NCI-H292 cells [7]; 1 mg/kg i.v. QW x2): 311 ± 14 mm^3 | Tumor volume Day 24 (NCI-H292 cells [7]; 1 mg/kg i.v. QW x2): 2485 ± 536 mm^3 | Survival (NCI-H292 cells [7]; 1 mg/kg i.v. QW x2): 4/5 | Tumor volume Day 14 (NCI-H292 cells [7]; 3 mg/kg i.v. QW x2): 1380 ± 320 mm^3 | TGI (%) (NCI-H292 cells [7]; 3 mg/kg i.v. QW x2): 26.2% | Tumor volume Day 0 (NCI-H292 cells [7]; 3 mg/kg i.v. QW x2): 314 ± 11 mm^3 | Tumor volume Day 24 (NCI-H292 cells [7]; 3 mg/kg i.v. QW x2): 1925 ± 389 mm^3 | Survival (NCI-H292 cells [7]; 3 mg/kg i.v. QW x2): 4/5 | Tumor volume Day 14 (NCI-H292 cells [7]; 10 mg/kg i.v. QW x2): 915 ± 150 mm^3 | TGI (%) (NCI-H292 cells [7]; 10 mg/kg i.v. QW x2): 44.5% | Tumor volume Day 0 (NCI-H292 cells [7]; 10 mg/kg i.v. QW x2): 327 ± 11 mm^3 | Tumor volume Day 24 (NCI-H292 cells [7]; 10 mg/kg i.v. QW x2): 1538 ± 267 mm^3 | Survival (NCI-H292 cells [7]; 10 mg/kg i.v. QW x2): 4/5
